This is an account of results in patent US20250206757A1 (GASHERBRUM BIO, INC., priority 2022, published 2025).

What is called EC50 is the concentration that produces a half-maximal response. A higher EC50 goes with a less potent agent.

The structures appear in SMILES notation.

Sequence of GLP-1 Receptor (P43220 24-463): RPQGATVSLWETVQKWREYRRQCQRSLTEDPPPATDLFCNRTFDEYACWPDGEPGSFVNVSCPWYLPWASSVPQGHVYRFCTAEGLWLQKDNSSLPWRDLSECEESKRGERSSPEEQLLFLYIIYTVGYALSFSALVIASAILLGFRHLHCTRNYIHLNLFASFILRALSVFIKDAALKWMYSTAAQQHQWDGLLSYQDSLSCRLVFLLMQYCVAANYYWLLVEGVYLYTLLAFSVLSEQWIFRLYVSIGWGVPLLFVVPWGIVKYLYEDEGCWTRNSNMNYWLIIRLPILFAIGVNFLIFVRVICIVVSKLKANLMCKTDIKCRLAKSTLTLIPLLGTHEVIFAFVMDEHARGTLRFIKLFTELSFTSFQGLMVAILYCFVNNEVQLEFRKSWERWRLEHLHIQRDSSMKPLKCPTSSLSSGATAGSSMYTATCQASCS

The target of this assay is GLP-1 Receptor (Homo sapiens, UniProt P43220). Briefly: GLP-1R agonist cAMP stimulation assay (HEK293/GLP1R/CRE-LUC cells, HTRF cAMP dynamic 2 kit). It is filed as cell-based. The conditions noted are these: HEK293/CRE-Luc cell line stably expressing the GLP-1 Receptor; 30 min incubation at 37° C. Summed up:
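HEK293 cells stably expressing GLP-1R with CRE-Luc, 1000 cells/well in DPBS with 0.5 mM IBMX and 0.10% BSA, exposed to half-log compound dilutions for 30 min at 37 °C. cAMP measured by HTRF (665/615 nm) after 1 h at room temperature.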
Compound `O=c1cc(-c2cc3nc(CN4CCc5cc(C(F)(F)F)c(OCc6ccc(Cl)cc6F)nc5C4)n(C[C@@H]4CCO4)c3cn2)cc[nH]1` [Compound 100, 4-[2-({2-[(4-chloro-2-fluorophenyl)methoxy]-3-(trifluoromethyl)-5,6,7,8-tetrahydro-1,7-naphthyridin-7-yl}methyl)-3-{1[(2S)-oxetan-2-yl]methyl}-3H-imidazo[4,5-c]pyridin-6-yl]-1,2-dihydropyridin-2-one] displayed an EC50 greater than 300 nM.
In the case of `O=c1ccc(-c2cc3nc(CN4CCc5cc(C(F)(F)F)c(OCc6ccc(Cl)cc6F)nc5C4)n(C[C@@H]4CCO4)c3cn2)c[nH]1` [Compound 102, 5-[2-({2-[(4-chloro-2-fluorophenyl)methoxy]-3-(trifluoromethyl)-5,6,7,8-tetrahydro-1,7-naphthyridin-7-yl}methyl)-3-{[(2S)-oxetan-2-yl]methyl}-3H-imidazo[4,5-c]pyridin-6-yl]-1,2-dihydropyridin-2-one], the concentration for a half-maximal effect (EC50) was greater than 300 nM.
The same measure for `O=C(Nc1cc2nc(CN3CCc4cc(C(F)(F)F)c(OCc5ccc(Cl)cc5F)nc4C3)n(C[C@@H]3CCO3)c2cn1)c1cccnc1` [Compound 103, N-[2-({2-[(4-chloro-2-fluorophenyl)methoxy]-3-(trifluoromethyl)-5,6,7,8-tetrahydro-1,7-naphthyridin-7-yl}methyl)-3-{[(2S)-oxetan-2-yl]methyl}-3H-imidazo[4,5-c]pyridin-6-yl]pyridine-3-carboxamide]: less than 1 nM; for `O=c1[nH]c(-c2cc3nc(CN4CCc5cc(C(F)(F)F)c(NCc6ccc(Cl)cc6F)nc5C4)n(C[C@@H]4CCO4)c3cn2)no1` [Compound 104, 3-{2-[(2-{[(4-chloro-2-fluorophenyl)methyl]amino}-3-(trifluoromethyl)-5,6,7,8-tetrahydro-1,7-naphthyridin-7-yl)methyl]-3-{[(2S)-oxetan-2-yl]methyl}-3H-imidazo[4,5-c]pyridin-6-yl}-4,5-dihydro-1,2,4-oxadiazol-5-one]: less than 1 nM; for `O=c1[nH]c(-c2cc3nc(CN4CCc5cc(C(F)(F)F)c(NCc6c(F)cc(Cl)cc6F)nc5C4)n(C[C@@H]4CCO4)c3cn2)no1` [Compound 105, 3-{2-[(2-{[(4-chloro-2,6-difluorophenyl)methyl]amino}-3-(trifluoromethyl)-5,6,7,8-tetrahydro-1,7-naphthyridin-7-yl)methyl]-3-{[(2S)-oxetan-2-yl]methyl}-3H-imidazo[4,5-c]pyridin-6-yl}-4,5-dihydro-1,2,4-oxadiazol-5-one]: less than 1 nM.
The result for `O=c1[nH]c(-c2ccc3c(nc(CN4CCc5cc(C(F)(F)F)c(NCc6ccc(Cl)cc6F)nc5C4)n3C[C@@H]3CCO3)c2F)no1` [Compound 106, 3-{2-[(2-{[(4-chloro-2-fluorophenyl)methyl]amino}-3-(trifluoromethyl)-5,6,7,8-tetrahydro-1,7-naphthyridin-7-yl)methyl]-4-fluoro-1-{[(2S)-oxetan-2-yl]methyl}-1H-1,3-benzodiazol-5-yl}-4,5-dihydro-1,2,4-oxadiazol-5-one] reads less than 1 nM; that for `NC(=O)c1nnc(-c2cc3nc(CN4CCc5cc(C(F)(F)F)c(NCc6ccc(Cl)cc6F)nc5C4)n(C[C@@H]4CCO4)c3cn2)[nH]1` [Compound 107, 5-{2-[(2-{[(4-chloro-2-fluorophenyl)methyl]amino}-3-(trifluoromethyl)-5,6,7,8-tetrahydro-1,7-naphthyridin-7-yl)methyl]-3-{[(2S)-oxetan-2-yl]methyl}-3H-imidazo[4,5-c]pyridin-6-yl}-4H-1,2,4-triazole-3-carboxamide], less than 1 nM.
In turn, `N#Cc1nnc(-c2cc3nc(CN4CCc5cc(C(F)(F)F)c(NCc6ccc(Cl)cc6F)nc5C4)n(C[C@@H]4CCO4)c3cn2)[nH]1` [Compound 108, 5-{2-[(2-{[(4-chloro-2-fluorophenyl)methyl]amino}-3-(trifluoromethyl)-5,6,7,8-tetrahydro-1,7-naphthyridin-7-yl)methyl]-3-{[(2S)-oxetan-2-yl]methyl}-3H-imidazo[4,5-c]pyridin-6-yl}-4H-1,2,4-triazole-3-carbonitrile] gave an EC50 of less than 1 nM.
On to `Fc1cc(Cl)ccc1CNc1nc2c(cc1C(F)(F)F)CCN(Cc1nc3cc(-c4nnc(C(F)(F)F)[nH]4)ncc3n1C[C@@H]1CCO1)C2` [Compound 109, N-[(4-chloro-2-fluorophenyl)methyl]-7-[(3-{1[(2S)-oxetan-2-yl]methyl}-6-[5-(trifluoromethyl)-4H-1,2,4-triazol-3-yl]-3H-imidazo[4,5-c]pyridin-2-yl)methyl]-3-(trifluoromethyl)-5,6,7,8-tetrahydro-1,7-naphthyridin-2-amine], for which the EC50 is less than 1 nM.
For `Fc1cc(Cl)cc(F)c1CNc1nc2c(cc1C(F)(F)F)CCN(Cc1nc3cc(-c4nnc(C5CC5)[nH]4)ncc3n1C[C@@H]1CCO1)C2` [Compound 110, N-[(4-chloro-2,6-difluorophenyl)methyl]-7-{[6-(5-cyclopropyl-4H-1,2,4-triazol-3-yl)-3-{[(2S)-oxetan-2-yl]methyl}-3H-imidazo[4,5-c]pyridin-2-yl]methyl}-3-(trifluoromethyl)-5,6,7,8-tetrahydro-1,7-naphthyridin-2-amine], the EC50 was less than 1 nM.
